Data as given in article PMC8691691 (ACS Chemical Neuroscience, 2021).

Experiments:
GlyT2 S481G mutant = molecular target: T1, GlyT2 S481G mutant (Rattus norvegicus, UniProt P58295, S481G); test: [3H]glycine transport by GlyT2 mutant in COS7 cells; assay type: cell-based
T1 construct: expressed in transfected cells; host or cells: COS7
T1 sequence (P58295 1-799 S481G): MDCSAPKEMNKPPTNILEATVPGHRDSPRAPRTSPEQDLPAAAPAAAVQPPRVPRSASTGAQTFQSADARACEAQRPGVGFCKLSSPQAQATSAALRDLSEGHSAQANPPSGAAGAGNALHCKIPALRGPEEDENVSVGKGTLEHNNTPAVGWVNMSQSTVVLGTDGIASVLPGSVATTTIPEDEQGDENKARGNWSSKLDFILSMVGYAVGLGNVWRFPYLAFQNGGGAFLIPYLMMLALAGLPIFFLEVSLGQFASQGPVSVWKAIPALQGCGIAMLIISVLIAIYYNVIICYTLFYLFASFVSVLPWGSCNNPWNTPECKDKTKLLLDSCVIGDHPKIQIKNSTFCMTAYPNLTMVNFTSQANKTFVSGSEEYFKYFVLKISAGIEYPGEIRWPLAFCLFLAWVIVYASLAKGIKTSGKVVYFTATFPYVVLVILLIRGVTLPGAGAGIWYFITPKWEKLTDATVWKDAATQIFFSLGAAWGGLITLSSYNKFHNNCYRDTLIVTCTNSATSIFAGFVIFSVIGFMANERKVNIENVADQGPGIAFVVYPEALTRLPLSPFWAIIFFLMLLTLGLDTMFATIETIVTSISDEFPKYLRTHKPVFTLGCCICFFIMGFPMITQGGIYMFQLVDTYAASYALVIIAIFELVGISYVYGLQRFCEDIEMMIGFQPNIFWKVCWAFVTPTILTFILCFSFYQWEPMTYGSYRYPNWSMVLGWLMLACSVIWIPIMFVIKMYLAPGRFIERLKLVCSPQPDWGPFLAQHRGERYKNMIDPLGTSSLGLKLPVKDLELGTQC

GlyT1 [1] = settings: neuronal cultures and brain preparations; cited from earlier work
[2] = system: thermal, mechanical, and chemical stimulations; settings: rat acute pain model; cited from earlier work
GlyT1 [3] = molecular target: T2, GlyT1 (Rattus norvegicus, UniProt P28572); test: [3H]glycine transport by recombinant GlyT1 expressed in COS7 cells; assay type: cell-based; settings: 10 μM glycine
T2 construct: expressed in transfected cells; host or cells: COS7
T2 sequence (P28572 1-638): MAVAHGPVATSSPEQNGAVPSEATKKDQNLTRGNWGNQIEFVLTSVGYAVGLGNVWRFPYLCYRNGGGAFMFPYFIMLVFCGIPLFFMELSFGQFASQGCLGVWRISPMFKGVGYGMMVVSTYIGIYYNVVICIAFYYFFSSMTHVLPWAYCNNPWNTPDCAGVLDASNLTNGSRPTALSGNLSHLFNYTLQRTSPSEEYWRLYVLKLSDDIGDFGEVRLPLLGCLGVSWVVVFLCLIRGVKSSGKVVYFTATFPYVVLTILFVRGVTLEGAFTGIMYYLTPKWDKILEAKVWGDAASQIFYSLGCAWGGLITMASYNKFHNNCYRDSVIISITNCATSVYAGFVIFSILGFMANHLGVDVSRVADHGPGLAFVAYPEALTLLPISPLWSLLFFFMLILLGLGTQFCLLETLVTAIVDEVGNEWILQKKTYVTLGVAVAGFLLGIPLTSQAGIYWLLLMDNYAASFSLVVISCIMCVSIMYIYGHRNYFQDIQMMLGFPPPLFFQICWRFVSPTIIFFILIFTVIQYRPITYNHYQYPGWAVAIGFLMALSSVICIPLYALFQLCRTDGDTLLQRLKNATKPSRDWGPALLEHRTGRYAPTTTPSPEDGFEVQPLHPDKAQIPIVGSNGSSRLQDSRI
Description: Substitution mutants were generated with the QuikChange II Site-Directed Mutagenesis kit (Agilent Technologies, Santa Clara, CA, USA), using rGlyT2 or rGlyT1 subcloned in pCDNA3.[47] The complete coding region of all of the constructs was sequenced to verify that only the desired mutation had been introduced. […] COS7 cells were grown and transfected using Turbofect Transfection Reagent (Thermo Fisher Scientific, Waltham, MA, USA), following the manufacturer’s protocol (2 μL reagent/μg of DNA). Cells were incubated for 48 h at 37 °C until used.
At the end of the desired time (usually 10 min), reactions were washed and terminated by aspiration. […] A nonlinear curve fitting method was used to obtain IC50 values using Graphpad Prism software, version 6.0, Graphpad, San Diego, CA, USA.

allodynia = settings: nerve ligation injury, streptozotocin-induced diabetic pain, complete Freund's adjuvant-induced inflammatory pain; cited from earlier work
[4] = due to its physiological irreversibility; cited from earlier work
GlyT2 = settings: cited from earlier work

SMILES | effect of mutation on inhibition of glycine transport (GlyT2 S481G mutant; S481G, 1 μM inhibitor, 25 μM glycine) | IC50 (GlyT2 S481G mutant; read-out: IC50 (Table S1)) | concentrations at which GlyT1 is inhibited (GlyT1 [1]) | effect on thermal, mechanical, and chemical stimulations [2] | IC50, inhibition of glycine transport by GlyT1 (GlyT1 [3]) | effect on allodynia (allodynia) | toxicity in animals [4] | reversibility of GlyT2 inhibition (GlyT2)
N[C@@H](COC(c1cccc(F)c1)c1ccccc1OCc1ccccc1)C(=O)O (some centres unmarked) [ALX1393] | more reduced inhibition potency for ALX1393 than for ORG25543 | 75 ± 8 nM | 0.5 to 1 µM | antinociceptive effect | low μM range | – | – | –
COc1cc(C(=O)NCC2(N(C)C)CCCC2)cc(OC)c1OCc1ccccc1 [ORG25543, N-[[1-(dimethylamino)cyclopentyl]methyl]-3,5-dimethoxy-4-(phenylmethoxy)benzamide] | – | – | – | – | – | reduces allodynia | generates toxicity in animals | irreversible GlyT2 inhibitor
